Measured values as given in US11427610B2, “Cyclic dinucleotides as anticancer agents” (BRISTOL-MYERS SQUIBB COMPANY, priority 2017, dated 2022).
Where two headings read alike, the source gives them in different places.

Columns and labels:
[1] = molecular target: T1, STING WT: His-TVMV-S-hSTING(155-341)-H232R (Homo sapiens, UniProt Q86WV6, H232R); test: STING HTRF binding assay, STING WT; settings: 20 nM His-tagged STING cytoplasmic domain, 200 nM fluorescein-labeled cGAMP analog probe, one hour; read-out: HTRF Binding Assays IC50 (μM) STING WT
T1 construct: His-TVMV-S-hSTING(155-341)-H232R
T1 sequence (Q86WV6 with tags, fused parts or gaps H232R): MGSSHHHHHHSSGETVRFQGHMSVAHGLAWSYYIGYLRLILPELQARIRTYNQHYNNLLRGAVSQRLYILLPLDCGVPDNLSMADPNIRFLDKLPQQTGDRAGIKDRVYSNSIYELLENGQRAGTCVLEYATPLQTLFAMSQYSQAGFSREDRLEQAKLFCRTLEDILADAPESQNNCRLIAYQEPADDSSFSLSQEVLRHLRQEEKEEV
Protocol: (§1) A time resolved FRET-based competition binding assay was used to assess test article binding to STING WT and STING AQ. His-tagged STING cytoplasmic domain (WT or AQ) at a concentration of 20 nM was incubated with 2.5 nM Tb-labeled anti-His antibody, test compound, and fluorescein-labeled cGAMP analog probe (BioLog cat. no. C195) at a concentration of 200 nM (STING WT) or 40 nM (STING AQ) in PBS containing 0.005% Tween-20 and 0.1% BSA for one hour. Fluorescence at 495 nm and 520 nm was measured using an EnVision microplate reader to quantify FRET between Tb-labeled anti-His antibody and fluorescein-labeled probe. Background was defined as the signal obtained in the absence of STING protein, and background subtracted FRET ratios were normalized to the maximum signal obtained in the absence of test compound. These values were converted to a percent inhibition. Percent inhibition was determined for test compounds at 11 concentrations. The IC50, defined as the concentration of competing test compound needed to reduce specific binding of the probe by 50%, was calculated using the 4 parameter logistic equation to fit the data

IRF3 = test: STING THP1 reporter assay, IRF pathway (Lucia luciferase); assay type: cell-based; settings: THP1-Dual cells, 10% human plasma, 100% activation = 100 μM cGAMP, luciferase readout, read-out: THP1 Reporter Assays EC50 (μM) IRF3
Text: (§2) THP1-Dual™ cells were derived from the human THP-1 monocyte cell line by stable integration of two inducible reporter constructs. To this end, THP1-Dual™ cells allow the simultaneous study of the NF-κB pathway, by monitoring the activity of SEAP, and the IRF pathway by assessing the activity of a secreted luciferase (Lucia). Both reporter proteins are readily measurable in the cell culture supernatant when using QUANTI-Blue™, a SEAP detection reagent, and QUANTI-Luc™, a luciferase detection reagent.
(§3) THP1-Dual™ cells induce the activation of NF-κB in response to STING agonists. They also trigger the IRF pathway upon stimulation with STING agonists, such as cGAMP. Here, the THP-1-Dual cells were used to assess STING binders for function on the cellular level.
(§4) Serial dilutions of compounds in DMSO were added to low volume 384 well plates at 100 nl/well using an ECHO acoustic dispenser (Labcyte, model 550) to achieve final starting concentration of 100 μM in cell suspension. THP-1 Dual™ STING reporter cells (Invivogen, Dual cells cat #THPD-nfis) were added to the plates with compounds at 15,000 cells in 10 μL per well in RPMI media (Gibco, cat #11875) containing 10% human plasma in a low volume 384-well black wall clear bottom tissue culture plate (Corning, cat #3542) for SEAP assay and low volume solid white plate (Corning, cat #3826) for luciferase assay. One column of the plate was reserved for treatment with cGAMP at 100 μM for 100% activation calculation and one column for no treatment (DMSO only) for baseline activation. Plates were then incubated in 37° C. incubator at 5% CO2 for 20 hours.
(§5) In the SEAP assay, 5 μl of 2× QuantiBlue (Invivogen, cat #Rep-qb2) is added to 384 well black plates seeded with THP1 cells and incubated at 37° C. for 2 hours. Plates were read on the Envision (Perkin Elmer) at 620 nm wavelength (OD620). In the luciferase assay, 5 μl of Quantiluc (Invivogen, Rep-qlc2) is added to white 384 well plates seeded with THP1 cells and read at 5 minutes on the Envision (Perkin Elmer) using a luminescence protocol (RLU). For both cell lines, 100% activation was determined by value (RLU) of THP-1 Dual STING cells stimulated with 100 μM cGAMP (Invivogen, cat #TLRL-NACGA23-5).

[2] = molecular target: T2, STING AQ: His-TVMV-S-hSTING(155-341)-G230A-R293Q (Homo sapiens, UniProt Q86WV6, G230A/H232R/R293Q); test: STING HTRF binding assay, STING AQ; settings: 20 nM His-tagged STING cytoplasmic domain, 40 nM fluorescein-labeled cGAMP analog probe, one hour; read-out: HTRF Binding Assays IC50 (μM) STING AQ
T2 construct: His-TVMV-S-hSTING(155-341)-G230A-R293Q
T2 sequence (Q86WV6 with tags, fused parts or gaps G230A/H232R/R293Q): as the sequence (Q86WV6 with tags, fused parts or gaps H232R) above, with G99A, R162Q counted along it
Protocol: as §1

NFkB = test: STING THP1 reporter assay, NF-κB pathway (SEAP); assay type: cell-based; settings: THP1-Dual cells, 10% human plasma, 100% activation = 100 μM cGAMP, SEAP readout, read-out: THP1 Reporter Assays EC50 (μM) NFkB
Text: as §2, §3, §4, §5

Row | Compound | IC50 [1] [µM] | EC50 (IRF3; Homo sapiens, THP-1, 20 h) [µM] | IC50 [2] [µM] | EC50 (NFkB; Homo sapiens, THP-1, 20 h) [µM] | EC50 (IRF3; 20 hours) [µM] | EC50 (NFkB; 20 hours) [µM]
1 | C#C[C@@H]1O[C@@H]2COP(=O)(S)O[C@H]3[C@@H](F)[C@H](n4cnc5c(N)ncnc54)O[C@@H]3COP(=O)(S)O[C@@H]1[C@@H]2O (single isomer, unassigned) [Example 1-1] | 1.4 | 23 | 0.06 | 37 | – | –
2 | C#C[C@@H]1O[C@@H]2COP(=O)(S)O[C@H]3[C@@H](F)[C@H](n4cnc5c(N)ncnc54)O[C@@H]3COP(=O)(S)O[C@@H]1[C@@H]2O (single isomer, unassigned) [Example 1-2] | 1.7 | – | 0.03 | – | 24 | 42
3 | C#C[C@@H]1O[C@@H]2COP(O)(=S)O[C@H]3[C@@H](F)[C@H](n4cnc5c(N)ncnc54)O[C@@H]3COP(O)(=S)O[C@@H]1[C@@H]2O (single isomer, unassigned) [Example 1-3] | 55.3 | > 100 | 1.9 | > 100 | – | –
4 | Nc1ncnc2c1ncn2[C@@H]1O[C@@H]2COP(O)(=S)O[C@@H]3[C@H](O)[C@@H](COP(O)(=S)O[C@H]2[C@H]1F)O[C@H]3C#Cc1ccccc1 (single isomer, unassigned) [Example 2-1] | > 100 | – | 19.4 | – | > 100 | –
5 | Nc1ncnc2c1ncn2[C@@H]1O[C@@H]2COP(O)(=S)O[C@@H]3[C@H](O)[C@@H](COP(O)(=S)O[C@H]2[C@H]1F)O[C@H]3C#Cc1ccccc1 (single isomer, unassigned) [Example 2-2] | 9.6 | – | 0.5 | – | > 100 | –
6 | Nc1ncnc2c1ncn2[C@@H]1O[C@@H]2COP(O)(=S)O[C@@H]3[C@H](O)[C@@H](COP(O)(=S)O[C@H]2[C@H]1F)O[C@H]3C#Cc1ccccc1 (single isomer, unassigned) [Example 2-3] | 20.5 | > 100 | 0.7 | > 100 | – | –
7 | Nc1ncnc2c1ncn2[C@@H]1O[C@@H]2COP(O)(=S)O[C@@H]3[C@H](O)[C@@H](COP(O)(=S)O[C@H]2[C@H]1F)O[C@H]3C#Cc1ccccc1 (single isomer, unassigned) [Example 2-4] | > 100 | – | 17 | – | > 100 | –
8 | Nc1ncnc2c1ncn2[C@@H]1O[C@@H]2COP(O)(=S)O[C@@H]3[C@H](O)[C@@H](COP(O)(=S)O[C@H]2[C@H]1F)O[C@H]3C#Cc1cccnc1 (single isomer, unassigned) [Example 3-1] | 67.4 | – | 1.3 | – | > 100 | > 100
9 | Nc1ncnc2c1ncn2[C@@H]1O[C@@H]2COP(O)(=S)O[C@@H]3[C@H](O)[C@@H](COP(O)(=S)O[C@H]2[C@H]1F)O[C@H]3C#Cc1cccnc1 (single isomer, unassigned) [Example 3-2] | 3.4 | – | 0.2 | – | > 100 | > 100
10 | Nc1ncnc2c1ncn2[C@@H]1O[C@@H]2COP(O)(=S)O[C@@H]3[C@H](O)[C@@H](COP(O)(=S)O[C@H]2[C@H]1F)O[C@H]3C#Cc1cccnc1 (single isomer, unassigned) [Example 3-3] | 1.1 | – | 0.04 | – | 6 | 8.1
11 | Nc1ncnc2c1ncn2[C@@H]1O[C@@H]2COP(O)(=S)O[C@@H]3[C@H](O)[C@@H](COP(O)(=S)O[C@H]2[C@H]1F)O[C@H]3C#Cc1cccnc1 (single isomer, unassigned) [Example 3-4] | 29.6 | – | 1.4 | – | > 100 | > 100
